A short description of data set [1]: removal of arsenate from water by ligand-based MIP. The conditions noted are these: ligand used in suspension polymerization MIP. The text has this:
(§1) General classes of cationic ligands that can be used in the present method include, but are not limited to, cationic oxygen containing heterocyclics, cationic nitrogen containing heterocyclics, cationic sulfur containing heterocyclics, cationic phosphorous containing heterocyclics, ammonium salts, phosphonium salts, acylinium salts, metallocenium salts, amidinium salts, imminium salts, and trityl salts. In one embodiment, the ligand can be 4-vinylbenzyl-N,N-dimethyl-N-decylammonium, 4-vinylbenzyl-N-decyl-N-methylglucammonium, N-methyl vinylpyridinium, or 4-vinylbenzyl-N,N-dimethyl-D-glucammonium.

A short description of data set [2]: removal of gold-containing cations from water by ligand-based MIP. The conditions noted are these: ligand used in cationic molecularly imprinted polymer.
Description: as §1

For data set [3] the following is noted: cited from earlier work.

The structures appear in SMILES notation.

With `C=Cc1ccc(C[N+](C)(C)CCCCCCCCCC)cc1.[Cl-]` [Example 1, N-(4-vinylbenzyl)-N-decyl-N,N-dimethylammonium chloride], the “removal of arsenate from water” value in data set [1] is listed as “good results”. Besides, in data set [2], the “removal of gold-containing cations from water” value is “particularly good results”.

`OCCCCCO` [1,5-pentanediol]: the miscibility with water entry in data set [3] is listed as “completely miscible”.

On to `C=Cc1ccc(C[N+](C)(CCCCCCCCCC)C[C@H](O)[C@@H](O)[C@H](O)[C@H](O)CO)cc1.[I-]` (stereo partly drawn) [Example 3, N-(4-Vinylbenzyl)-N-decyl-N-methylglucammonium iodide], for which the “removal of arsenate from water” value in data set [1] is listed as “good results”.

As for `CCCCCO` [Example 1-pentanol, 1-pentanol], the soluble in water in data set [3] (in water) was 2.3 % weight/weight.

For the compound `CCCCC` [n-pentane], the miscibility with water entry in data set [3] is recorded as “completely immiscible”.

These data come from patent US7476316B2, “Molecularly imprinted polymers (MIPS) for the selective removal of inorganic contaminants from liquids” (priority 2005, dated 2009).
